We go through 82 compounds from US20170000133A1, “BENZOXABOROLE FUNGICIDES” (SYNGENTA PARTICIPATIONS AG, priority 2013, published 2017).

SMILES strings stand for the structures.

One may read the inhibition as the relative decrease from the control value, in per cent.

The subject of the first assay is Pythium ultimum. The assay is described as follows: Pythium ultimum / liquid culture (seedling damping off). Particulars: Globisporangium ultimum, read-out: disease control (inhibition of growth determined photometrically). The assay is classed as cell-based.
Regarding `COP(=O)(CCOC(=O)c1cc2c(cc1Cl)COB2O)OC` [Compound 228], the inhibition at 200 ppm was no less than 80%.

The assay is the same for the next values; noted with them: Globisporangium ultimum; 200 ppm; potato dextrose broth, 24° C., 2-3 days after application; read-out: disease control (inhibition of growth determined photometrically).
As for `O=C(NCc1ccccn1)c1ccc2c(c1)B(O)OC2` [Compound 52], the inhibition at 200 ppm is no less than 80%.
Same read-out and setting: in the case of `O=C(NCCC(F)(F)F)c1cc2c(cc1Cl)COB2O` [Compound 54] it was no less than 80%; in that of `O=C(NC1CCSC1=O)c1cc2c(cc1Cl)COB2O` (stereo not shown) [Compound 55], no less than 80%.
On the same count and under the same terms, then `O=C(NCCc1ccc2c(c1)OCO2)c1cc2c(cc1Cl)COB2O` [Compound 58], with no less than 80%.
In the case of `C#CC1(NC(=O)c2cc3c(cc2Cl)COB3O)CCCCC1` [Compound 62], the inhibition at 200 ppm was no less than 80%.
For the compound `O=C(NCC1CCCO1)c1cc2c(cc1Cl)COB2O` (stereo not shown) [Compound 64], the inhibition at 200 ppm was no less than 80%.
For the compound `O=C(NCCCCl)c1cc2c(cc1F)COB2O` [Compound 70], the inhibition at 200 ppm was no less than 80%.
Same read-out and setting: in the case of `O=C(NCc1ccccc1)c1cc2c(cc1Cl)COB2O` [Compound 71] it was no less than 80%.
On the same count and under the same terms, in the case of `O=C(NCCC(F)(F)F)c1cc2c(cc1F)COB2O` [Compound 72] it was no less than 80%; in that of `O=C(NCC1(O)CCCCC1)c1cc2c(cc1F)COB2O` [Compound 74], no less than 80%.
Still for that read-out and setting: then `CC(NC(=O)c1cc2c(cc1Cl)COB2O)c1ccccc1` (stereo not shown) [Compound 75], with no less than 80%; and `O=C(NC1CCSC1=O)c1cc2c(cc1F)COB2O` (stereo not shown) [Compound 76], with no less than 80%.
As for `O=C(NCCc1cccs1)c1cc2c(cc1Cl)COB2O` [Compound 81], the inhibition at 200 ppm is no less than 80%.
On to `O=C(NCCc1ccc2c(c1)OCO2)c1cc2c(cc1F)COB2O` [Compound 82], for which the inhibition at 200 ppm is no less than 80%.
Same read-out and setting: in the case of `O=C(NCCOc1ccccc1)c1cc2c(cc1Cl)COB2O` [Compound 83] it was no less than 80%.
Still for that read-out and setting: in the case of `CS(=O)(=O)c1ccc(CNC(=O)c2cc3c(cc2F)COB3O)cc1` [Compound 86] it was no less than 80%.
Same read-out and setting: in the case of `COc1ccc(CNC(=O)c2cc3c(cc2Cl)COB3O)cc1` [Compound 91] it was no less than 80%; in that of `O=C(NCCC1OCCO1)c1cc2c(cc1F)COB2O` [Compound 92], no less than 80%; in that of `O=C(NCc1ccc(-n2cccn2)cc1)c1cc2c(cc1Cl)COB2O` [Compound 93], no less than 80%.
In the case of `CSCCNC(=O)c1cc2c(cc1Cl)COB2O` [Compound 101], the inhibition at 200 ppm was no less than 80%.
Same read-out and setting: then `O=C(NCc1ccc(Cl)nc1)c1cc2c(cc1Cl)COB2O` [Compound 105], with no less than 80%; and `O=C(Nc1ccccc1Cl)c1cc2c(cc1Cl)COB2O` [Compound 108], with no less than 80%; and `O=C(NCCc1ccccc1)c1cc2c(cc1F)COB2O` [Compound 111], with no less than 80%.
On to `O=C(NCCc1cccs1)c1cc2c(cc1F)COB2O` [Compound 115], for which the inhibition at 200 ppm was no less than 80%.
The same measure, in the same setting: in the case of `O=C(NCCOc1ccccc1)c1cc2c(cc1F)COB2O` [Compound 117] it was no less than 80%; in that of `COc1ccc(NC(=O)c2cc3c(cc2Cl)COB3O)c(OC)c1` [Compound 118], no less than 80%.
Still for that read-out and setting: then `O=C(Nc1cccc(F)c1)c1cc2c(cc1Cl)COB2O` [Compound 120], with no less than 80%; and `O=C(NCc1ccc(-n2cccn2)cc1)c1cc2c(cc1F)COB2O` [Compound 126], with no less than 80%.
As to `O=C(NCCc1c[nH]c2ccccc12)c1cc2c(cc1F)COB2O` [Compound 130], the inhibition at 200 ppm was no less than 80%.
Turning to `CSCCNC(=O)c1cc2c(cc1F)COB2O` [Compound 134], the inhibition at 200 ppm is no less than 80%.
Regarding `O=C(Nc1ccccc1-c1cc2ccccc2[nH]1)c1cc2c(cc1Cl)COB2O` [Compound 135], the inhibition at 200 ppm was no less than 80%.
On the same count and under the same terms, then `CSc1nc(NC(=O)c2cc3c(cc2Cl)COB3O)n[nH]1` [Compound 149], with no less than 80%; and `Cc1cccnc1NC(=O)c1cc2c(cc1Cl)COB2O` [Compound 151], with no less than 80%.
Still for that read-out and setting: in the case of `O=C(Nc1cccc2ncccc12)c1cc2c(cc1F)COB2O` [Compound 152] it was no less than 80%; in that of `Cc1cc(O)nc(NC(=O)c2cc3c(cc2Cl)COB3O)n1` [Compound 153], no less than 80%; in that of `Cc1onc(-c2ccccc2)c1NC(=O)c1cc2c(cc1Cl)COB2O` [Compound 156], no less than 80%.
With `O=C(Nc1ccc(-n2cccc2)cc1)c1cc2c(cc1F)COB2O` [Compound 159], the inhibition at 200 ppm is no less than 80%.
Same read-out and setting: in the case of `O=C(Nc1cc(-c2ccccc2)[nH]n1)c1cc2c(cc1Cl)COB2O` [Compound 160] it was no less than 80%; in that of `Cc1nnc(NC(=O)c2cc3c(cc2Cl)COB3O)s1` [Compound 164], no less than 80%; in that of `O=C(Nc1ccc2ncsc2c1)c1cc2c(cc1F)COB2O` [Compound 166], no less than 80%.
As to `Cc1cc(=O)oc2cc(NC(=O)c3cc4c(cc3F)COB4O)ccc12` [Compound 172], the inhibition at 200 ppm was no less than 80%.
On to `CN(C)S(=O)(=O)c1ccc(NC(=O)c2cc3c(cc2F)COB3O)cc1` [Compound 173], for which the inhibition at 200 ppm is no less than 80%.
As to `Cc1cc(NC(=O)c2cc3c(cc2F)COB3O)n(C)n1` [Compound 175], the inhibition at 200 ppm is no less than 80%.
On the same count and under the same terms, in the case of `Cc1csc(NC(=O)c2cc3c(cc2F)COB3O)n1` [Compound 176] it was no less than 80%; in that of `CSc1nc(NC(=O)c2cc3c(cc2F)COB3O)n[nH]1` [Compound 177], no less than 80%.
On the same count and under the same terms, then `Cc1cc(O)nc(NC(=O)c2cc3c(cc2F)COB3O)n1` [Compound 178], with no less than 80%.
On to `Cc1onc(-c2ccccc2)c1NC(=O)c1cc2c(cc1F)COB2O` [Compound 180], for which the inhibition at 200 ppm is no less than 80%.
For `O=C(OCC1CCCO1)c1cc2c(cc1Cl)COB2O` (stereo not shown) [Compound 212], the inhibition at 200 ppm is no less than 80%.
As to `Cn1cc(CCCOC(=O)c2cc3c(cc2Cl)COB3O)cn1` [Compound 219], the inhibition at 200 ppm is no less than 80%.
On the same count and under the same terms, then `O=C(OCCCC(=O)N1CCCC1)c1cc2c(cc1Cl)COB2O` [Compound 220], with no less than 80%; and `O=C(OC1COC1)c1cc2c(cc1Cl)COB2O` [Compound 234], with no less than 80%.
The same measure, in the same setting: then `O=C(OC1CCOC1)c1cc2c(cc1Cl)COB2O` (stereo not shown) [Compound 235], with no less than 80%.
For the compound `COCCOCCOCCOC(=O)c1cc2c(cc1Cl)COB2O` [Compound 239], the inhibition at 200 ppm is no less than 80%.
On the same count and under the same terms, then `O=C(NCCC(F)(F)F)c1ccc2c(c1)B(O)OC2` [Compound 246], with no less than 80%; and `O=C(NCC1(O)CCCCC1)c1ccc2c(c1)B(O)OC2` [Compound 247], with no less than 80%.
For `CCOC(=O)C1CC=CCC1NC(=O)c1ccc2c(c1)B(O)OC2` (stereo not shown) [Compound 248], the inhibition at 200 ppm was no less than 80%.
Still for that read-out and setting: in the case of `O=C(NCC(O)c1ccc(O)cc1)c1ccc2c(c1)B(O)OC2` (stereo not shown) [Compound 249] it was no less than 80%; in that of `C#CC1(NC(=O)c2ccc3c(c2)B(O)OC3)CCCCC1` [Compound 254], no less than 80%.
For `O=C(NCCC1OCCO1)c1ccc2c(c1)B(O)OC2` [Compound 255], the inhibition at 200 ppm is no less than 80%.
Take `O=C(NCC1CCCO1)c1ccc2c(c1)B(O)OC2` (stereo not shown) [Compound 256]: the inhibition at 200 ppm was no less than 80%.
The same measure, in the same setting: then `O=C(NCc1cccnc1)c1ccc2c(c1)B(O)OC2` [Compound 259], with no less than 80%; and `CC(NC(=O)c1ccc2c(c1)B(O)OC2)c1ccccc1` (stereo not shown) [Compound 263], with no less than 80%; and `O=C(NCc1ccc2c(c1)OCCO2)c1ccc2c(c1)B(O)OC2` [Compound 269], with no less than 80%.
For `O=C(NCc1ccc(-n2cccn2)cc1)c1ccc2c(c1)B(O)OC2` [Compound 272], the inhibition at 200 ppm was no less than 80%.
For `O=C(NCCc1c[nH]c2ccccc12)c1ccc2c(c1)B(O)OC2` [Compound 274], the inhibition at 200 ppm was no less than 80%.
On to `O=C(NCc1ccccc1C(F)(F)F)c1ccc2c(c1)B(O)OC2` [Compound 275], for which the inhibition at 200 ppm is no less than 80%.
Still for that read-out and setting: then `O=C(NCc1ccc(Cl)nc1)c1ccc2c(c1)B(O)OC2` [Compound 276], with no less than 80%; and `O=C(NCCN1CCN(Cc2ccccc2)CC1)c1ccc2c(c1)B(O)OC2` [Compound 278], with no less than 80%; and `Cc1cccc(Cl)c1NC(=O)c1ccc2c(c1)B(O)OC2` [Compound 281], with no less than 80%.
`O=C(Nc1ccc(-n2cccc2)cc1)c1ccc2c(c1)B(O)OC2` [Compound 287]: the inhibition at 200 ppm was no less than 80%.
Still for that read-out and setting: then `COC(=O)c1cc2cc(NC(=O)c3ccc4c(c3)B(O)OC4)ccc2s1` [Compound 288], with no less than 80%; and `O=C(Nc1ccccc1N1CCOCC1)c1ccc2c(c1)B(O)OC2` [Compound 293], with no less than 80%; and `CN(C)S(=O)(=O)c1ccc(NC(=O)c2ccc3c(c2)B(O)OC3)cc1` [Compound 295], with no less than 80%.
As for `O=C(Nc1ccc(S(=O)(=O)Nc2ccccn2)cc1)c1ccc2c(c1)B(O)OC2` [Compound 296], the inhibition at 200 ppm was no less than 80%.
Still for that read-out and setting: in the case of `Cc1cc(O)nc(NC(=O)c2ccc3c(c2)B(O)OC3)n1` [Compound 299] it was no less than 80%; in that of `O=C(Nc1ccc2ccccc2n1)c1ccc2c(c1)B(O)OC2` [Compound 300], no less than 80%; in that of `Cc1onc(-c2ccccc2)c1NC(=O)c1ccc2c(c1)B(O)OC2` [Compound 301], no less than 80%.
On the same count and under the same terms, in the case of `O=C(Nc1cc(-c2ccccc2)[nH]n1)c1ccc2c(c1)B(O)OC2` [Compound 303] it was no less than 80%.
Same read-out and setting: then `Cc1nnc(NC(=O)c2ccc3c(c2)B(O)OC3)s1` [Compound 305], with no less than 80%; and `Cc1cc(C)c2c(NC(=O)c3ccc4c(c3)B(O)OC4)[nH]nc2n1` [Compound 309], with no less than 80%; and `CC(CN1CCOCC1)OC(=O)c1ccc2c(c1)B(O)OC2` (stereo not shown) [Compound 322], with no less than 80%.
